# In patent US20100210558A1, “MINIGASTRIN AS A THERAPEUTIC AGENT” (priority 2007, published 2010):
# Where no end group is shown, it is not given here.
# Tests used:
# [1] = system: MRSA; experiment: Methicillin Resistant Staphylococcus Aureus (MRSA) assay; type: cell-based; conditions: peptide 10 micrograms per ml, visual reading of growth
# [2] = system: Primary Human endothelial cells (HUVEC); experiment: Endothelial cell migration assay; type: cell-based; conditions: peptide 10 micrograms per ml, 22 hours
# [3] = Cytotoxicity in HCMV assay (CellTiter 96 cell viability); type: cell-based; conditions: human, MRC-5 cells (embryonal lung fibroblasts), 6 days incubation
# From the text: (§1) Cells were split twice a week 1:2.
# [4] = system: spleen cells (IL-2, IL-4, IL-5, IFN-γ, TNF-α protein levels); experiment: Th1/Th2 cytokine profiling assay; type: cell-based, Balb/c mice; conditions: Ovalbumin-restimulated Balb/c spleen cells; peptide 10 micrograms per ml; 72 hours
# [5] = system: A549 cells; experiment: Propidium iodide cell cycle assay; type: cell-based, human; conditions: peptide 10 micrograms per ml, 24 hours, FACS
# [6] = Cytotoxicity in HIV-1 assay (MTS cell viability); conditions: human
# [7] = system: RAW 264.7 cells; experiment: Phagocytosis assay (Fluorescein-labeled Escherichia coli); type: cell-based, mouse; conditions: peptide 10 micrograms per ml, Fluorescein-labeled E. coli, flow cytometry
# [8] = system: Human Peripheral Blood Mononuclear Cells (PBMC); experiment: B cell proliferation assay (SAC plus Interleukin-2, 3H-thymidine); type: cell-based; conditions: peptide 10 micrograms per ml, 3 days
# [9] = in vitro; conditions: human
# [10] = system: TNF alpha production; experiment: TNF alpha production assay (LPS-stimulated macrophages, ELISA); type: cell-based; conditions: human macrophages, peptide 10 micrograms per ml, lipopolysaccharide 200 ng/ml, overnight
# [11] = system: Human Peripheral Blood Mononuclear Cells (PBMC); experiment: T cell proliferation assay (PHA, 3H-thymidine); type: cell-based; conditions: peptide 10 micrograms per ml, 3 days
# [12] = system: Pseudomonas aeruginosa; experiment: Pseudomonas aeruginosa assay; type: cell-based; conditions: peptide 10 micrograms per ml, visual reading of growth
# [13] = system: Streptococcus pneumoniae; experiment: Streptococcus pneumoniae assay; type: cell-based; conditions: peptide 10 micrograms per ml, visual reading of growth
# [14] = system: HUVEC; experiment: Endothelial tube formation assay; type: cell-based, human; conditions: peptide 10 micrograms per ml, 20 hours
# From the text: Positive control was vehicle only.
# [15] = system: hepatitis B virus (HBV) ayw strain; experiment: HBV replication assay (secreted HBV DNA, TaqMan PCR); conditions: HepG2-2.2.15 cells; peptide 10 micrograms per ml; six days; HBV DNA in supernatant
# [16] = system: HCMV strain AD169; experiment: HCMV plaque reduction assay; type: cell-based; conditions: HCMV AD169 in MRC-5 cells; peptide 10 micrograms per ml; 7-10 days
# From the text: as §1
# Ganciclovir was used as positive control.
substance,measurement,setting,value
LEEEEEAYGWMDF-NH2 [Minigastrin I],% inhibition,[1],0.0%
same,% inhibition of migration,[2],−3%
same,viability at 144 h,[3],100%
same,IFNγ spleen cells; TH1 response (% of control),[4],79.5 % of control
same,IL-2 spleen cells (% of control),[4],149.2 % of control
same,IL-4 spleen cells; TH2 response (% of control),[4],106.6 % of control
same,IL-5 spleen cells; TH2 response (% of control),[4],66.5 % of control
same,TNF-a spleen cells; TH1 response (% of control),[4],99.0 % of control
same,Cell cycle analysis G0/G1,[5],57.1
same,Cell cycle analysis G2/M,[5],10.3
same,Cell cycle analysis S,[5],32.6
same,viability at 10 micrograms per ml,[6],100%
same,% of control phagocytosis,[7],145.7%
same,% of SAC/IL2 induced control,[8],78.4%
same,"viability at 144 h, 10 micrograms per ml",[9],9.5%
same,% of LPS induction,[10],79.0%
same,% of PHA induced control,[11],101.1%
same,% inhibition,[12],0.0%
same,% inhibition,[13],0.0%
same,% inhibition of tube formation,[14],36%
same,% inhibition of HBV replication in HEP G2 cells,[15],49.9%
same,% plaque reduction,[16],1.4%
